# Laboratory results reported in the supplement of paper PMC10307832.
# Compound: COC1=C(C=C(C=C1)C2=CC3=NC=CN3C(=N2)NC4=C(C=CC=N4)C(=O)N)OC [BAY61-3606]
# Test: relative viability (nuclei count vs DMSO), 5 days (fraction); higher = more cells survive
# Conditions: 0.02 µM
# Summary of the method: (§1)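 On vehicle-anchored 1536-well plates, lung cancer cell lines held overnight at 37 °C were pinned with five library-drug doses (not always all listed) spaced by √10. With no medium change over 5 days, they were then fixed, permeabilised and Hoechst-stained in one step and imaged at 4×. MetaXpress counted nuclei, and viability is the median across plates of treated-well over vehicle-well nuclei. Acceptance needed control CV below 25% and at least one doubling.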
row,Cell Line,relative viability
1,NCI-H2228,1.18
2,EMC-BAC-2,1.04
3,NCI-H2087,0.996
4,Calu-6,1.07
5,HCC-44,0.947
6,NCI-H1703,1.16
7,NCI-H727,1
8,LK-2,1.08
9,NCI-H2126,1.07
10,NCI-H1793,0.964
11,H3255,0.976
12,COR-L23,1.05
13,COR-L 105,0.932
14,LC-2-ad,1.07
15,LU99A,1.04
16,NCI-H358,0.954

row,Cell Line,relative viability
1,NCI-H322M,1.04
2,IA-LM,0.984
3,HCC-78,1.04
4,A549,1.01
5,LXF-289,0.95
6,BEN,1.05
7,HARA,1.03
8,HCC-827,1.02
9,NCI-H520,1.07
10,LOU-NH91,0.991
11,NCI-H2023,1.14
12,A-427,1.08
13,NCI-H647,1.15
14,PC-3 [JPC-3],1.04
15,NCI-H1755,1.05

# Same assay, conditions: 0.06325 µM
row,Cell Line,relative viability
1,NCI-H2228,0.922
2,EMC-BAC-2,1
3,NCI-H2087,1.15
4,Calu-6,1.05
5,HCC-44,0.989
6,NCI-H1703,0.789
7,NCI-H727,0.923
8,LK-2,0.939
9,NCI-H2126,0.931
10,NCI-H1793,1.02
11,H3255,0.905
12,COR-L23,1.09
13,COR-L 105,0.892
14,LC-2-ad,1.01
15,LU99A,0.953
16,NCI-H358,0.947

row,Cell Line,relative viability
1,NCI-H322M,0.919
2,IA-LM,0.864
3,HCC-78,0.934
4,A549,1.07
5,LXF-289,1.07
6,BEN,0.891
7,HARA,0.927
8,HCC-827,1.01
9,NCI-H520,1.06
10,LOU-NH91,0.816
11,NCI-H2023,1.05
12,A-427,1.01
13,NCI-H647,0.897
14,PC-3 [JPC-3],1
15,NCI-H1755,1

# Same assay, conditions: 0.2 µM
row,Cell Line,relative viability
1,NCI-H2228,0.944
2,EMC-BAC-2,0.921
3,NCI-H2087,1.18
4,Calu-6,0.979
5,HCC-44,1.03
6,NCI-H1703,0.77
7,NCI-H727,0.983
8,LK-2,1.06
9,NCI-H2126,0.944
10,NCI-H1793,0.786
11,H3255,0.928
12,COR-L23,1.06
13,COR-L 105,0.951
14,LC-2-ad,0.932
15,LU99A,1.01
16,NCI-H358,0.87

row,Cell Line,relative viability
1,NCI-H322M,1
2,IA-LM,0.956
3,HCC-78,0.973
4,A549,0.959
5,LXF-289,0.874
6,BEN,1.1
7,HARA,0.945
8,HCC-827,1.06
9,NCI-H520,1.07
10,LOU-NH91,0.965
11,NCI-H2023,1
12,A-427,0.963
13,NCI-H647,0.946
14,PC-3 [JPC-3],1
15,NCI-H1755,0.995

# Same assay, conditions: 0.6325 µM
row,Cell Line,relative viability
1,NCI-H2228,1.06
2,EMC-BAC-2,0.988
3,NCI-H2087,1.11
4,Calu-6,0.963
5,HCC-44,1.03
6,NCI-H1703,0.919
7,NCI-H727,1.01
8,LK-2,1.09
9,NCI-H2126,1.05
10,NCI-H1793,1.08
11,H3255,1.16
12,COR-L23,1
13,COR-L 105,0.852
14,LC-2-ad,1.04
15,LU99A,0.967
16,NCI-H358,0.864

row,Cell Line,relative viability
1,NCI-H322M,0.921
2,IA-LM,1.03
3,HCC-78,0.985
4,A549,1.05
5,LXF-289,1.04
6,BEN,1.07
7,HARA,0.953
8,HCC-827,1.1
9,NCI-H520,1.12
10,LOU-NH91,0.996
11,NCI-H2023,1.16
12,A-427,1.03
13,NCI-H647,0.979
14,PC-3 [JPC-3],1.02
15,NCI-H1755,1.05

# Same assay, conditions: 2 µM
row,Cell Line,relative viability
1,NCI-H2228,0.792
2,EMC-BAC-2,0.942
3,NCI-H2087,0.961
4,Calu-6,0.807
5,HCC-44,1.05
6,NCI-H1703,0.558
7,NCI-H727,0.901
8,LK-2,0.923
9,NCI-H2126,0.915
10,NCI-H1793,1.03
11,H3255,0.898
12,COR-L23,0.909
13,COR-L 105,0.568
14,LC-2-ad,0.841
15,LU99A,0.702
16,NCI-H358,0.369

row,Cell Line,relative viability
1,NCI-H322M,0.843
2,IA-LM,0.86
3,HCC-78,1.08
4,A549,0.857
5,LXF-289,1.05
6,BEN,1.05
7,HARA,0.866
8,HCC-827,0.994
9,NCI-H520,1.05
10,LOU-NH91,0.862
11,NCI-H2023,0.697
12,A-427,0.892
13,NCI-H647,0.616
14,PC-3 [JPC-3],0.939
15,NCI-H1755,0.988

# Compound: COc1cccc2c1C(=O)c1c(O)c3c(c(O)c1C2=O)C[C@@](O)(C(=O)CO)C[C@@H]3O[C@H]1C[C@H](N)[C@H](O)[C@H](C)O1 [Doxorubicin]
# Test: as above
# Conditions: 0.001 µM
# Summary of the method: as §1
row,Cell Line,relative viability
1,NCI-H2228,0.859
2,EMC-BAC-2,1.34
3,NCI-H2087,0.819
4,Calu-6,0.966
5,HCC-44,0.998
6,NCI-H1703,0.857
7,NCI-H727,0.874
8,LK-2,0.903
9,NCI-H2126,0.946
10,H3255,0.892
11,COR-L23,0.998
12,COR-L 105,0.951
13,LC-2-ad,0.883
14,LU99A,0.938
15,NCI-H358,0.975
16,NCI-H322M,1
17,IA-LM,0.902
18,HCC-78,1
19,A549,1
20,LXF-289,0.952
21,BEN,1.19
22,HARA,0.983
23,HCC-827,1.01
24,NCI-H520,0.901
25,LOU-NH91,0.692
26,NCI-H2023,0.873
27,A-427,0.969
28,NCI-H647,0.953
29,PC-3 [JPC-3],1.08
30,NCI-H1755,0.999

# Same assay, conditions: 0.003162 µM
row,Cell Line,relative viability
1,NCI-H2228,1
2,EMC-BAC-2,0.844
3,NCI-H2087,1.15
4,Calu-6,1.02
5,HCC-44,0.992
6,NCI-H1703,0.936
7,NCI-H727,0.971
8,LK-2,1.08
9,NCI-H2126,1
10,NCI-H1793,1.18
11,H3255,0.993
12,COR-L23,1.05
13,COR-L 105,0.853
14,LC-2-ad,0.909
15,LU99A,1.02
16,NCI-H358,1.04

row,Cell Line,relative viability
1,NCI-H322M,0.887
2,IA-LM,1.04
3,HCC-78,0.999
4,A549,0.991
5,LXF-289,1.03
6,BEN,1.03
7,HARA,1.12
8,HCC-827,1.01
9,NCI-H520,1.03
10,LOU-NH91,0.948
11,NCI-H2023,0.903
12,A-427,1.03
13,NCI-H647,1.07
14,PC-3 [JPC-3],1.05
15,NCI-H1755,0.979

# Same assay, conditions: 0.01 µM
row,Cell Line,relative viability
1,NCI-H2228,0.822
2,EMC-BAC-2,0.748
3,NCI-H2087,1.01
4,Calu-6,0.929
5,HCC-44,0.941
6,NCI-H1703,0.812
7,NCI-H727,0.76
8,LK-2,0.829
9,NCI-H2126,0.97
10,NCI-H1793,0.863
11,H3255,0.931
12,COR-L23,0.932
13,COR-L 105,0.827
14,LC-2-ad,0.948
15,LU99A,0.893
16,NCI-H358,0.761

row,Cell Line,relative viability
1,NCI-H322M,0.976
2,IA-LM,0.889
3,HCC-78,0.851
4,A549,0.869
5,LXF-289,1.01
6,BEN,0.985
7,HARA,1.07
8,HCC-827,1.04
9,NCI-H520,0.939
10,LOU-NH91,1.05
11,NCI-H2023,0.706
12,A-427,0.936
13,NCI-H647,0.987
14,PC-3 [JPC-3],1.04
15,NCI-H1755,1

# Same assay, conditions: 0.03162 µM
row,Cell Line,relative viability
1,NCI-H2228,0.606
2,EMC-BAC-2,0.469
3,NCI-H2087,0.78
4,Calu-6,0.566
5,HCC-44,1.03
6,NCI-H1703,0.4
7,NCI-H727,0.928
8,LK-2,0.788
9,NCI-H2126,0.914
10,NCI-H1793,0.731
11,H3255,0.849
12,COR-L23,0.718
13,COR-L 105,0.706
14,LC-2-ad,0.943
15,LU99A,0.838
16,NCI-H358,0.235

row,Cell Line,relative viability
1,NCI-H322M,0.904
2,IA-LM,0.749
3,HCC-78,0.955
4,A549,0.395
5,LXF-289,1.05
6,BEN,0.683
7,HARA,0.945
8,HCC-827,1.03
9,NCI-H520,0.799
10,LOU-NH91,0.914
11,NCI-H2023,0.209
12,A-427,0.81
13,NCI-H647,0.495
14,PC-3 [JPC-3],0.998
15,NCI-H1755,1.03

# Same assay, conditions: 0.1 µM
row,Cell Line,relative viability
1,NCI-H2228,0.339
2,EMC-BAC-2,0.326
3,NCI-H2087,0.636
4,Calu-6,0.431
5,HCC-44,0.894
6,NCI-H1703,0.351
7,NCI-H727,0.812
8,LK-2,1.08
9,NCI-H2126,1.01
10,NCI-H1793,0.901
11,H3255,0.727
12,COR-L23,0.235
13,COR-L 105,0.503
14,LC-2-ad,0.793
15,LU99A,0.813
16,NCI-H358,0.199

row,Cell Line,relative viability
1,NCI-H322M,0.568
2,IA-LM,0.508
3,HCC-78,0.954
4,A549,0.503
5,LXF-289,1.01
6,BEN,0.85
7,HARA,0.955
8,HCC-827,1
9,NCI-H520,0.822
10,LOU-NH91,0.761
11,NCI-H2023,0.0985
12,A-427,0.757
13,NCI-H647,0.201
14,PC-3 [JPC-3],0.982
15,NCI-H1755,1.02
